# Patent US20120035244A1, “PARP1 TARGETED THERAPY” (THE REGENTS OF THE UNIVERSITY OF MICHIGAN, priority 2010, published 2012)
# Entries after “also recorded” stand apart in the source; their conditions may differ.
# What was measured:
# [1] = system: PC3 cells expressing BRCA2 shRNA; test: γ-H2A.X immunofluorescence, PC3 cells expressing BRCA2 shRNA; type: cell-based, human; conditions: BRCA2 depleted PC3 cells, Olaparib
# Experimental: Cells were seeded at 25,000 cells/mL in 4-well chamber slide 24 hours prior to the addition of siRNA or drug as indicated. Merbarone (Sigma) was dissolved in DMSO and stored at 4° C. Cells were then washed once in PBS, fixed for 15 minutes in 100% methanol, washed in PBS, permeabilized for 5 minutes in PBS containing 0.2% Triton-X, washed twice in PBS, blocked for 30 minutes in PBS containing 0.5% donkey serum (Sigma, St. Louis, Mo.), held for 45 minutes in PBS containing 0.5% donkey serum and primary antibody: anti-γ-H2A.X mouse monoclonal (Millipore Cat #05-636), anti-γ-H2A.X rabbit polyclonal (Cell Signaling, Cat #9719, Danvers, Mass.), and anti-53BP1 rabbit polyclonal (Cell Signaling, Cat #4937, Danvers, Mass.) washed 3 times with PBS, held for 30 minutes in PBS containing 0.5% donkey serum and secondary antibody: Alexa Fluor 488-anti-Mouse (Invitrogen) or Alexa Fluor 594-anti-Rabbit (Invitrogen). Cells were then stained with DAPI for 5 minutes and slides were mounted 12 hours prior to analysis using Vectashield (Vector laboratories, Burlingame, Calif.). Images were taken using 100× oil lens on an Olympus Confocal microscope at the University of Michigan microscopy imaging lab.
# [2] = system: ERG target genes in VCaP cells; test: qPCR analysis of ERG-target genes in VCaP cells; type: cell-based, human; conditions: siRNA or drug for 48 hours
# Experimental: Total RNA was isolated from VCAP, RWPE or PrEC cells that were transfected with siRNA as indicated (Qiagen). Quantitative PCR (QPCR) was performed using SYBR Green dye on an Applied Biosystems 7300 Real Time PCR system (Applied Biosystems, Foster City, Calif.) as described (Tomlins, S. A., et al. Science (New York, N.Y. 310, 644-648 (2005)). Briefly, 1 μg of total RNA was reverse transcribed into cDNA using SuperScript 111 (Invitrogen, Carlsbad, Calif.) in the presence of random primers (Invitrogen). All reactions were performed in triplicate with SYBR Green Master Mix (Applied Biosystems) plus 25 ng of both the forward and reverse primer according to the manufacturer's recommended thermocycling conditions, and then subjected to melt curve analysis. […] The relative quantity of the target gene was completed for each sample using the ΔΔCt method by the comparing mean Ct of the gene to the average Ct of the housekeeping gene, β-Actin8. […] The primer sequences for the transcript analyzed were either previously described (Tomlins et al., 2008, supra) or are provided in Table 4.
# Total RNA was isolated from VCAP, RWPE or PrEC cells that were transfected with siRNA as indicated (Qiagen). […] The relative quantity of the target gene was completed for each sample using the ΔΔCt method by the comparing mean Ct of the gene to the average Ct of the housekeeping gene, β-Actin8. […]
# LNCaP = test: CAM xenograft tumor weight, LNCaP; type: in vivo, chicken embryo; conditions: extended Olaparib treatment, P<0.01
# Experimental: The CAM assay was performed as described previously (Zijlstra, A., et al., Cancer research 62, 7083-7092 (2002)). Briefly, fertilized eggs were incubated in a rotary humidified incubator at 38° C. with for 10 days. After releasing the CAM by applying mild amount of low pressure to the hole over the air sac and cutting a square 1-cm^2 window encompassing a second hole near the allantoic vein, cultured human cells that had been pre-treated with siRNA as indicated were detached by trypsinization and re-suspended in complete medium prior to implantation of 2×10^6 cells adjacent to the mesenchyme in each egg. The windows were subsequently, sealed and the eggs were returned to a stationary incubator. Cells were then treated as indicated with 40 mg/kg body weight Olaparib which was administered on day 13, 15 and 17. Day 18 embryos were sacrificed. Tumors were then excised and weighed. […] After incubation of either the metastasis or intravasation assays, the extra-embryonic tumor and CAM, as well as the embryonic liver were harvested and analyzed for the presence of tumor cells by quantitative human alu-specific PCR. […] Quantification of human cells in the extracted DNA was done as described^14. Fluorogenic TaqMan qPCR probes were applied as above, and DNA copy numbers were quantified.
# [3] = Body weight of xenografted mice; type: in vivo; conditions: xenograft and primagraft models, Olaparib treatment
# Experimental: Olaparib was obtained from Axon Medchem (Groningen, The Netherlands).
# Human prostate cancer specimens MDA-PCa 2b-T (ETV1 positive), MDA-PCa-133 (ERG positive) and MDA PCa 118b (ETS-negative) were obtained (Li, Z. G., et al. The Journal of clinical investigation 118, 2697-2710 (2008)). Each xenografted tumor tissue was aseptically harvested from the host mice. New recipient mice were anesthetized by injecting […] intraperitoneally for chemical restraint before tumor implantation. About 0.5 cm^3 size of the excised tumor tissue was directly implanted into subcutaneous pockets of 6- to 8-week-old male CB17 SCID mice (Charles River Laboratories) in a laminar flow sterile hood. Sub-cutaneous pocket was carefully closed by applying 1 or 2 wound clips. All mice were monitored for 24 hours after implantation procedure for any apparent physiologic disturbances or missing wound clips. Olaparib (40 mg/Kg body weight) treatment was started after 72 hours. […] Body weight was also monitored weekly during the course of the study.
# [4] = Serum ALT and AST of PC3-ERG mice (liver toxicity); type: in vivo
smiles,measurement,setting,value
"O=C(c1cc(Cc2n[nH]c(=O)c3ccccc23)ccc1F)N1CCN(C(=O)C2CC2)CC1 [Olaparib, 4-[3-(4-Cyclopropanecarbonylpiperazine-1-carbonyl)-4-fluorobenzyl]-2H-phthalazin-1-one]",γ-H2A.X staining,[1],similarly dramatic increase in γ-H2A.X staining
same,expression of the ERG target genes (qPCR),[2],confirmed gene expression changes as predicted by the gene expression arrays; also recorded: altered expression of the ERG target genes
same,tumor size (weight) on CAM,LNCaP,significantly smaller
same,total body weight,[3],did not lead to a significant decrease in total body weight; also recorded: did not have an observable effect on total body weight; also recorded: does not reduce total mouse body weight
same,liver toxicity as assessed by serum levels of ALT and AST,[4],did not lead to liver toxicity
